# Numbered stars: 1 amine (or outer) side, 2 acyl side, 3 side chain; on linkers, the order of the positions; unused ones are H or OH. Bridge positions count the residues as written; N and C are the ends. Square brackets hold non-standard residues; d marks the D form. Peptide text beside a SMILES is read from it. * marks the point of attachment. Trp(7-aza,1-CH2COOH) = N[C@@H](Cc1cn(CC(=O)O)c2ncccc12)C(=O)O; Trp(βS-Me,7-OMe) = COc1cccc2c([C@H](C)[C@H](N)C(=O)O)c[nH]c12; Phe(4-CH2SO3H) = N[C@@H](Cc1ccc(CS(=O)(=O)O)cc1)C(=O)O; Trp(7-CN) = N#Cc1cccc2c(C[C@H](N)C(=O)O)c[nH]c12; Trp(7-Cl) = N[C@@H](Cc1c[nH]c2c(Cl)cccc12)C(=O)O; X20 = O=C1NCc2ccc(C[C@H](N[*:1])C(=O)[*:2])cc21; Phe(4-CONH2) = NC(=O)c1ccc(C[C@H](N)C(=O)O)cc1; Phe(4-COOH) = N[C@@H](Cc1ccc(C(=O)O)cc1)C(=O)O; 4Pal(3S-Me) = C[C@@H](c1ccncc1)[C@H](N)C(=O)O; Trp(7-aza) = N[C@@H](Cc1c[nH]c2ncccc12)C(=O)O; Pip(5R-OH) = O=C(O)[C@@H]1CC[C@@H](O)CN1; Nle(6-COOH) = N[C@@H](CCCCC(=O)O)C(=O)O; Tyr(2-F) = N[C@@H](Cc1ccc(O)cc1F)C(=O)O; X1 = O=C([C@@H]1CC[C@H](N[*:1])C1)[*:2]; X45 = O=C([C@H]1CC2(CC2)CN1[*:1])[*:2]; Val(3-OH) = CC(C)(O)[C@H](N)C(=O)O; Pip(4-aza) = O=C(O)[C@@H]1CNCCN1; 4Pal = N[C@@H](Cc1ccncc1)C(=O)O; NMeE = CN[C@@H](CCC(=O)O)C(=O)O; dHyp = O=C(O)[C@H]1C[C@H](O)CN1; Ahp(2) = CCCCC[C@H](N)C(=O)O; NMeS = CN[C@@H](CO)C(=O)O; hSer = N[C@@H](CCO)C(=O)O; αMeS = C[C@](N)(CO)C(=O)O; Carboxymethyl = O=C(O)C*; Nle = CCCC[C@H](N)C(=O)O; X37 = c1cncc(N*)c1; CF3 = FC(F)(F)*; Sar = CNCC(=O)O
# Experiments:
# [1] = molecular target: T1, human soluble TNFR1 (sTNFR1) (Homo sapiens, UniProt P19438); assay: Human sTNFR1-peptide displacement assay (LanthaScreen Eu TR-FRET binding assay)
# T1 construct: made in house; host or cells: Sf21 (baculovirus)
# T1 sequence (P19438 with tags, fused parts or gaps): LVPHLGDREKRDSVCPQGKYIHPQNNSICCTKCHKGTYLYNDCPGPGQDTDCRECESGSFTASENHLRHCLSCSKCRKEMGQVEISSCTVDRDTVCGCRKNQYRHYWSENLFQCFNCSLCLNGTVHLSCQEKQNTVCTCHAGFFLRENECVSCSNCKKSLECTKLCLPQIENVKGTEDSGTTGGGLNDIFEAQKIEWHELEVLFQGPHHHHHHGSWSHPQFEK
# Procedure, shortened: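 Readout is the 665/615 nm TR-FRET ratio (Eu anti-His donor, streptavidin-Alexa647 acceptor), normalized to DMSO and saturating displacer, fit by Morrison-based five-parameter logistic for Kd^app. His-tagged sTNFR1 (1-211) prebound to 100 nM biotinylated peptide SEQ ID NO.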
# [2] = molecular target: T2, TNFα-induced NF-κB signal transduction pathway (TNFR1 signaling) in THP-1 cells (Homo sapiens, UniProt P19438); assay: THP-1 Lucia NF-κB reporter cell assay, inhibition of TNFα-induced NF-κB signaling; assay type: cell-based; settings: THP-1 NF-κB Lucia reporter cells, 10 ng/mL TNFα, 16-18 h, secreted luciferase; read-out: THP-1 IC50
# T2 sequence (P19438 30-455): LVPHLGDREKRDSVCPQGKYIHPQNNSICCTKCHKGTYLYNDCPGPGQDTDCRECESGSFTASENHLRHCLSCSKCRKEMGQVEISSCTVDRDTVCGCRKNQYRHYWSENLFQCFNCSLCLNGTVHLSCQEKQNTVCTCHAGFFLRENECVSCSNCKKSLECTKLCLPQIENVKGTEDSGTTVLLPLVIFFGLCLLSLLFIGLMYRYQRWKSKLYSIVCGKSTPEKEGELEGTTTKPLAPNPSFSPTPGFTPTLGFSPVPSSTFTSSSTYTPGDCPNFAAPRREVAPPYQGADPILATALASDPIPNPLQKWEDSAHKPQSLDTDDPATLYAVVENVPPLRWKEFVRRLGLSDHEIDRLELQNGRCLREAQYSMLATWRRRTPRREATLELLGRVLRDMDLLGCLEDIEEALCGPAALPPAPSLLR
# Procedure, shortened: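 Inhibition of TNFR1-driven NF-κB activation was measured as luminescence of secreted reporter luciferase following overnight (16-18 h) stimulation with 10 ng/mL TNFα.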
SMILES,Kd [1] [nM],IC50 [2] [nM],IC50 [1] [nM]
"CCCCC[C@@H]1NC(=O)[C@@H]2CC[C@@H](C2)NC(=O)[C@H]([C@@H](C)c2c[nH]c3c(OC)cccc23)NC(=O)CN(C)C(=O)[C@H](Cc2ccc(C(N)=O)cc2)NC(=O)[C@H](Cc2ccc(C(N)=O)cc2)NC(=O)[C@](C)(CO)NC(=O)[C@H](Cc2c[nH]c3c(C#N)cccc23)NC(=O)[C@H](Cc2ccc(C(=O)O)cc2)NC(=O)[C@H](CC(N)=O)NC(=O)[C@H]2C[C@H](O)CN2C(=O)[C@H](Cc2c[nH]c3ccccc23)NC(=O)[C@H](CCOC)NC(=O)[C@H]([C@@H](C)c2ccncc2)NC1=O [SEQ ID NO. 154] (cyclo([Ahp(2)][4Pal(3S-Me)][hSer](Me)W[dHyp]N[Phe(4-COOH)][Trp(7-CN)][αMeS][Phe(4-CONH2)][Phe(4-CONH2)][Sar][Trp(βS-Me,7-OMe)][X1]))",0.17,1.2,–
"CCCC[C@@H]1NC(=O)[C@@H]2CC[C@@H](C2)NC(=O)[C@H]([C@@H](C)c2c[nH]c3c(OC)cccc23)NC(=O)CN(C)C(=O)[C@H](Cc2ccc(C(N)=O)cc2)NC(=O)[C@H](Cc2ccc(C(N)=O)cc2)NC(=O)[C@](C)(CO)NC(=O)[C@H](Cc2c[nH]c3c(C#N)cccc23)NC(=O)[C@H](Cc2ccc3c(c2)C(=O)NC3)NC(=O)[C@H](CC(N)=O)NC(=O)[C@H]2C[C@H](OCC(=O)O)CN2C(=O)[C@H](Cc2cn(CC(=O)O)c3ncccc23)NC(=O)[C@@H]2CC[C@@H](O)CN2C(=O)[C@H](Cc2ccncc2)NC1=O [SEQ ID NO. 156] (cyclo([4Pal][Pip(5R-OH)][Trp(7-aza,1-CH2COOH)][dHyp](Carboxymethyl)N[X20][Trp(7-CN)][αMeS][Phe(4-CONH2)][Phe(4-CONH2)][Sar][Trp(βS-Me,7-OMe)][X1][Nle]))",0.12,0.8,–
"CCCC[C@@H]1NC(=O)CSC[C@@H](C(N)=O)NC(=O)[C@H]([C@@H](C)c2c[nH]c3c(OC)cccc23)NC(=O)CN(C)C(=O)[C@H](Cc2ccc(OC(F)(F)F)cc2)NC(=O)[C@H](Cc2ccc(C(=O)O)cc2)NC(=O)[C@](C)(CO)NC(=O)[C@H](Cc2c[nH]c3c(Cl)cccc23)NC(=O)[C@H](Cc2ccncc2)NC(=O)[C@H](CC(N)=O)NC(=O)[C@H](CCC(=O)O)N(C)C(=O)[C@H](Cc2c[nH]c3ncccc23)NC(=O)[C@@H]2CNCCN2C(=O)[C@H](Cc2ccncc2)NC1=O [SEQ ID NO. 158] ({CH2CO}-[Nle][4Pal][Pip(4-aza)][Trp(7-aza)][NMeE]N[4Pal][Trp(7-Cl)][αMeS][Phe(4-COOH)]Y(CF3)[Sar][Trp(βS-Me,7-OMe)]C-NH2; thioether N-14)",–,5.3,1.79
"CCCC[C@@H]1NC(=O)CSC[C@@H](C(N)=O)NC(=O)[C@H]([C@@H](C)c2c[nH]c3c(OC)cccc23)NC(=O)CN(C)C(=O)[C@H](Cc2ccc(OC)cc2)NC(=O)[C@H](Cc2ccc(C(=O)O)cc2)NC(=O)[C@](C)(CO)NC(=O)[C@H](Cc2c[nH]c3c(Cl)cccc23)NC(=O)[C@H](Cc2ccc(C(N)=O)cc2)NC(=O)[C@H](CC(N)=O)NC(=O)[C@H](CCC(=O)O)N(C)C(=O)[C@H](Cc2c[nH]c3ccccc23)NC(=O)[C@@H]2CNCCN2C(=O)[C@H](Cc2ccncc2)NC1=O [SEQ ID NO. 162] ({CH2CO}-[Nle][4Pal][Pip(4-aza)]W[NMeE]N[Phe(4-CONH2)][Trp(7-Cl)][αMeS][Phe(4-COOH)]Y(Me)[Sar][Trp(βS-Me,7-OMe)]C-NH2; thioether N-14)",0.56,0.1,0.69
"CCCC[C@@H]1NC(=O)CSC[C@@H](C(N)=O)NC(=O)[C@H]([C@@H](C)c2c[nH]c3c(OC)cccc23)NC(=O)CN(C)C(=O)[C@H](Cc2ccc(O)cc2)NC(=O)[C@H](Cc2ccc(C(=O)O)cc2)NC(=O)[C@](C)(CO)NC(=O)[C@H](Cc2c[nH]c3c(Cl)cccc23)NC(=O)[C@H](Cc2ccncc2)NC(=O)[C@H](CC(N)=O)NC(=O)[C@H](CCC(=O)O)N(C)C(=O)[C@H](Cc2c[nH]c3ncccc23)NC(=O)[C@H](C(C)(C)O)NC(=O)[C@H](Cc2ccc(C(N)=O)cc2)NC1=O [SEQ ID NO. 164] ({CH2CO}-[Nle][Phe(4-CONH2)][Val(3-OH)][Trp(7-aza)][NMeE]N[4Pal][Trp(7-Cl)][αMeS][Phe(4-COOH)]Y[Sar][Trp(βS-Me,7-OMe)]C-NH2; thioether N-14)",0.5,3.6,0.6
"COc1cccc2c([C@H](C)[C@@H]3NC(=O)CN(C)C(=O)[C@H](Cc4ccc(O)cc4)NC(=O)[C@H](Cc4ccc(C(=O)O)cc4)NC(=O)[C@](C)(CO)NC(=O)[C@H](Cc4c[nH]c5c(Cl)cccc45)NC(=O)[C@H](Cc4ccncc4)NC(=O)[C@H](CC(N)=O)NC(=O)[C@H](CCC(=O)O)N(C)C(=O)[C@H](Cc4c[nH]c5ccccc45)NC(=O)[C@H](CO)N(C)C(=O)[C@H](Cc4ccncc4)NC(=O)[C@H](CCC(=O)Nc4cccnc4)NC(=O)[C@@H]4CC[C@@H](C4)NC3=O)c[nH]c12 [SEQ ID NO. 166] (cyclo([4Pal][NMeS]W[NMeE]N[4Pal][Trp(7-Cl)][αMeS][Phe(4-COOH)]Y[Sar][Trp(βS-Me,7-OMe)][X1]E(X37)))",0.44,2.7,0.5
"CCCC[C@@H]1NC(=O)CSC[C@@H](C(N)=O)NC(=O)[C@H]([C@@H](C)c2c[nH]c3c(OC)cccc23)NC(=O)CN(C)C(=O)[C@H](Cc2ccc(O)cc2)NC(=O)[C@H](Cc2ccc(C(=O)O)cc2)NC(=O)[C@](C)(CO)NC(=O)[C@H](Cc2c[nH]c3c(Cl)cccc23)NC(=O)[C@H](Cc2ccncc2)NC(=O)[C@H](CC(N)=O)NC(=O)[C@H]2CC3(CC3)CN2C(=O)[C@H](Cc2c[nH]c3ccccc23)NC(=O)[C@@H]2CNCCN2C(=O)[C@H](Cc2ccncc2)NC1=O [SEQ ID NO. 167] ({CH2CO}-[Nle][4Pal][Pip(4-aza)]W[X45]N[4Pal][Trp(7-Cl)][αMeS][Phe(4-COOH)]Y[Sar][Trp(βS-Me,7-OMe)]C-NH2; thioether N-14)",0.48,2.6,–
"CCCC[C@@H]1NC(=O)[C@@H]2CC[C@@H](C2)NC(=O)[C@H]([C@@H](C)c2c[nH]c3c(OC)cccc23)NC(=O)CN(C)C(=O)[C@H](Cc2ccc(O)cc2)NC(=O)[C@H](Cc2ccc(C(=O)O)cc2)NC(=O)[C@](C)(CO)NC(=O)[C@H](Cc2c[nH]c3c(Cl)cccc23)NC(=O)[C@H](Cc2ccc(CS(=O)(=O)O)cc2)NC(=O)[C@H](CC(N)=O)NC(=O)[C@H](CCC(=O)O)N(C)C(=O)[C@H](Cc2c[nH]c3ccccc23)NC(=O)[C@@H]2CNCCN2C(=O)[C@H](Cc2ccncc2)NC1=O [SEQ ID NO. 171] (cyclo([4Pal][Pip(4-aza)]W[NMeE]N[Phe(4-CH2SO3H)][Trp(7-Cl)][αMeS][Phe(4-COOH)]Y[Sar][Trp(βS-Me,7-OMe)][X1][Nle]))",0.19,0.9,–
"CCCC[C@@H]1NC(=O)[C@@H]2CC[C@@H](C2)NC(=O)[C@H]([C@@H](C)c2c[nH]c3c(OC)cccc23)NC(=O)CN(C)C(=O)[C@H](Cc2ccc(O)cc2F)NC(=O)[C@H](Cc2ccc(C(=O)O)cc2)NC(=O)[C@](C)(CO)NC(=O)[C@H](Cc2c[nH]c3c(Cl)cccc23)NC(=O)[C@H](Cc2ccncc2)NC(=O)[C@H](CC(N)=O)NC(=O)[C@H](CCC(=O)O)N(C)C(=O)[C@H](Cc2c[nH]c3ccccc23)NC(=O)[C@@H]2CNCCN2C(=O)[C@H](Cc2ccncc2)NC1=O [SEQ ID NO. 175] (cyclo([4Pal][Trp(7-Cl)][αMeS][Phe(4-COOH)][Tyr(2-F)][Sar][Trp(βS-Me,7-OMe)][X1][Nle][4Pal][Pip(4-aza)]W[NMeE]N))",0.22,0.9,–
"CCCCC[C@@H]1NC(=O)[C@@H]2CC[C@@H](C2)NC(=O)[C@H]([C@@H](C)c2c[nH]c3c(OC)cccc23)NC(=O)CN(C)C(=O)[C@H](Cc2ccc(C(N)=O)cc2)NC(=O)[C@H](Cc2ccc(C(N)=O)cc2)NC(=O)[C@](C)(CO)NC(=O)[C@H](Cc2c[nH]c3c(C#N)cccc23)NC(=O)[C@H](Cc2ccc(C(=O)O)cc2)NC(=O)[C@H](CC(N)=O)NC(=O)[C@H]2C[C@H](O)CN2C(=O)[C@H](Cc2c[nH]c3ccccc23)NC(=O)[C@H](CCCCC(=O)O)NC(=O)[C@H]([C@@H](C)c2ccncc2)NC1=O [SEQ ID NO. 176] (cyclo([Ahp(2)][4Pal(3S-Me)][Nle(6-COOH)]W[dHyp]N[Phe(4-COOH)][Trp(7-CN)][αMeS][Phe(4-CONH2)][Phe(4-CONH2)][Sar][Trp(βS-Me,7-OMe)][X1]))",0.22,1,–

# Source: patent US20240287138A1, “CYCLIC PEPTIDES FOR INHIBITING TNF RECEPTOR 1 ACTIVITY” (Merck Sharp & Dohme LLC, priority 2023, published 2024)
